Legend:
[1] = target: T1, interleukin-1β converting enzyme (ICE) (Homo sapiens, UniProt P29466); assay: Enzyme assay with fluorescent substrate (Acetyl-Tyr-Val-Ala-Asp-AMC); type: biochemical; settings: Example 2 table, read-out: Fluorescence Ki
T1 sequence (P29466 120-297 limits assumed): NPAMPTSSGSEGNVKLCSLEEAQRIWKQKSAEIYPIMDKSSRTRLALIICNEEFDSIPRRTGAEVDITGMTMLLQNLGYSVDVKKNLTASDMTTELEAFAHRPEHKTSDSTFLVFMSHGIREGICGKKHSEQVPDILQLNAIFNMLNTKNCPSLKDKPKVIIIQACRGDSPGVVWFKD
T1 sequence (P29466 317-404 limits assumed): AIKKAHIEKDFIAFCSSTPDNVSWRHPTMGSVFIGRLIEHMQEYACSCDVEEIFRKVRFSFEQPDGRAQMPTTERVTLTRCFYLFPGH
Procedure: 2. Enzyme Assay with Fluorescent Substrate
This assay is run essentially according to Thornberry et al. (Nature 356: 768-774 (1992)), using substrate 17 referenced in that article. The substrate is: Acetyl-Tyr-Val-Ala-Asp-amino-4-methylcoumarin (AMC) (SEQ ID NO: 2). The following components are mixed: […]
The assay is run in a 96 well microtiter plate. Buffer and ICE are added to the wells. The components are left to incubate at 37° C. for 15 minutes in a temperature-controlled wellplate. After the 15 minute incubation, the reaction is started by adding substrate directly to the wells and the reaction is monitored @37° C. for 30 minutes by following the release of the AMC fluorophore using an excitation wavelength for 380 nm and an emission wavelength of 460 nm. A linear fit of the data for each well is performed and a rate is determined in fluorescence units per second.
(§1) For determination of enzyme inhibition constants (Ki) or the mode of inhibition (competitive, uncompetitive or noncompetitive), the rate data determined in the enzyme assays at varying inhibitor concentrations are computer-fit to standard enzyme kinetic equations (see I. H. Segel, Enzyme Kinetics, Wiley-Interscience, 1975).

[2] = target: T1, interleukin-1β converting enzyme (ICE); assay: Enzyme assay with UV-visible substrate (Succinyl-Tyr-Val-Ala-Asp-pNitroanilide); type: biochemical
Procedure: 1. Enzyme assay with UV-visible substrate
This assay is run using an Succinyl-Tyr-Val-Ala-Asp-pNitroanilide substrate (SEQ ID NO: 1). Synthesis of analogous substrates is described by L. A. Reiter (Int. J. Peptide Protein Res. 43, 87-96 (1994)). The assay mixture contains: […]
The visible ICE assay is run in a 96-well microtiter plate. Buffer, ICE and DMSO (if inhibitor is present) are added to the wells in the order listed. The components are left to incubate at room temperature for 15 minutes starting at the time that all components are present in all wells. The microtiter plate reader is set to incubate at 37° C. After the 15 minute incubation, substrate is added directly to the wells and the reaction is monitored by following the release of the chromophore (pNA) at 405-603 nm at 37° C. for 20 minutes. A linear fit of the data is performed and the rate is calculated in mOD/min. DMSO is only present during experiments involving inhibitors, buffer is used to make up the volume to 100 μl in the other experiments.
as §1

[3] = system: mature IL-1β, Human Peripheral Blood Mononuclear Cells (PBMC); assay: Cell assay: IL-1β assay with human PBMC or enriched adherent mononuclear cells; type: cell-based; settings: LPS-stimulated cells, mature IL-1β by ELISA
Source text: IL-1β Assay with a Mixed Population of Human Peripheral Blood Mononuclear Cells (PBMC) or Enriched Adherent Mononuclear Cells
Processing of pre-IL-1β by ICE can be measured in cell culture using a variety of cell sources. Human PBMC obtained from healthy donors provides a mixed population of lymphocyte subtypes and mononuclear cells that produce a spectrum of interleukins and cytokines in response to many classes of physiological stimulators. Adherent mononuclear cells from PBMC provides an enriched source of normal monocytes for selective studies of cytokine production by activated cells.
An initial dilution series of test compound in DMSO or ethanol is prepared, with a subsequent dilution into RPMI-10% FBS media (containing 2 mM L-glutamine, 10 mM HEPES, 50 U and 50 ug/ml pen/strep) respectively to yield drugs at 4× the final test concentration containing 0.4% DMSO or 0.4% ethanol. The final concentration of DMSO is 0.1% for all drug dilutions. A concentration titration which brackets the apparent Ki for a test compound determined in an ICE inhibition assay is generally used for the primary compound screen.
We generally test 5-6 compound dilutions and have performed the cellular component of the assay in duplicate, with duplicate ELISA determinations on each cell culture supernatant.
Buffy coat cells isolated from one pint human blood (yielding 40-45 ml final volume plasma plus cells) are diluted with media to 80 ml and LeukoPREP separation tubes (Becton Dickinson) are each overlaid with 10 ml of cell suspension. After 15 min centrifugation at 1500-1800×g, the plasma/media layer is aspirated and then the mononuclear cell layer is collected with a Pasteur pipette and transferred to a 15 ml conical centrifuge tube (Corning). Media is added to bring the volume to 15 ml, gently mix the cells by inversion and centrifuge at 300×g for 15 min. Resuspend the PBMC pellet in a small volume of media, count cells and adjust to 6×10^6 cells/ml.
For the cellular assay, add 1.0 ml of the cell suspension to each well of a 24-well flat bottom tissue culture plate (Corning), 0.5 ml test compound dilution and 0.5 ml LPS solution (Sigma #L-3012; 20 ng/ml solution prepared in complete RPMI media; final LPS concentration 5 ng/ml). The 0.5 ml additions of test compound and LPS are usually sufficient to mix the contents of the wells. Three control mixtures are run per experiment, with either LPS alone, solvent vehicle control, and/or additional media to adjust the final culture volume to 2.0 ml. The cell cultures are incubated for 16-18 hr at 37° C. in the presence of 5% CO2.
At the end of the incubation period, cells are harvested and transferred to 15 ml conical centrifuge tubes. After centrifugation for 10 min at 200×g, supernatants are harvested and transferred to 1.5 ml Eppendorf tubes. It may be noted that the cell pellet may be utilized for a biochemical evaluation of pre-IL-1β and/or mature IL-1β content in cytosol extracts by western blotting or ELISA with pre-IL-1β specific antisera.
PBMC are isolated and prepared as described above. Media (1.0 ml) is first added to wells followed by 0.5 ml of the PBMC suspension. After a one hour incubation, plates are gently shaken and nonadherent cells aspirated from each well. Wells are then gently washed three times with 1.0 ml of media and final resuspended in 1.0 ml media. The enrichment for adherent cells generally yields 2.5-3.0×10^5 cells per well. […]

[4] = Homo sapiens, PBMC, Example 2 table

Row | Compound | Ki [1] [nM] | Ki ([2]; Example 2 table) [nM] | IC50 ([3]; Example 2 table) [µM] | IC50 [3, 4] [µM] | also measured
1 | CC(=O)N[C@@H](Cc1ccc(O)cc1)C(=O)N[C@H](C(=O)N1CC(OCc2ccccc2)C[C@H]1C(=O)NC(C=O)CC(=O)O)C(C)C (stereo partly shown) [Compound K, N-[N-Acetyl-tyrosinyl-valinyl-(4-benzyloxy)prolinyl]-3-amino-4-oxobutanoicacid] | 2 | 10 | 2 to 11 | – | –
2 | COc1cccc2nc(C(=O)[C@H](CC(=O)O)NC(=O)[C@@H]3C[C@H](Oc4ccccc4)CN3C(=O)[C@@H](NC(C)=O)C(C)C)oc12 [Compound 86, N-Acetyl-(S)-valinyl-(4-(S)-phenoxy)prolinyl-3(S)-amino-4-(7-methoxybenzoxazol-2-yl)-4-oxo-butanoic acid] | – | – | – | – | Ki ([2]; Example 6 table): 175 nM; IC50 ([3]; Example 6 table): 4 µM
3 | N-(N-Acetyl-tyrosinyl-valinyl-pipecolyl)-3-amino-4-oxobutanoic acid [H] | 4.7 | 23 | 6 to 11 | – | –
4 | CC(=O)N[C@@H](Cc1ccc(O)cc1)C(=O)N[C@H](C(=O)N1CC(Oc2ccccc2)C[C@H]1C(=O)NC(C=O)CC(=O)O)C(C)C (stereo partly shown) [I, N-(N-Acetyl-tyrosinyl-valinyl-(4-phenoxyprolinyl))-3-amino-4-oxobutanoicacid] | – | – | – | 2.6 | –
5 | CC(=O)N[C@@H](Cc1ccc(O)cc1)C(=O)N[C@H](C(=O)N1CC(O)C[C@H]1C(=O)NC(C=O)CC(=O)O)C(C)C (stereo partly shown) [J, N-[N-Acetyl-tyrosinyl-valinyl-(4-hydroxyprolinyl)]-3-amino-4-oxobutanoicacid] | – | – | – | 5 to 7 | –

Reference: patent US5716929A (Vertex Pharmaceuticals, Inc., priority 1995, dated 1998)
